Experimental data published in ChEMBL document CHEMBL4118125, “MK-8325: A silyl proline-containing NS5A inhibitor with pan-genotype activity for treatment of HCV” (Bioorg Med Chem Lett, 2018).
In brackets after ≈: the same amount, converted by molar mass. Activity calls are given as the source filed them. The rule behind the calls is not given here.

Columns and labels:
[1] = species: Homo sapiens; assay: Inhibition of sodium channel (unknown origin) at 30 uM
[2] = target: Voltage-gated inwardly rectifying potassium channel KCNH2 (Homo sapiens, UniProt Q12809); assay: Inhibition of human ERG at 30 uM
[3] = target: Cytochrome P450 2D6 (Homo sapiens, UniProt P10635); assay: Inhibition of CYP2D6 (unknown origin); type: ADME
[4] = Cytotoxicity in human HuH7 replicon cells by MTS assay; type: cell-based, Huh-7
[5] = tested on: Cynomolgus monkey; assay: Clearance in cynomolgus monkey at 1 mg/kg, iv by LC-MS/MS method relative to liver blood flow; type: ADME, organism-based, Macaca fascicularis; conditions: in vivo
[6] = target: T1, Solute carrier organic anion transporter family member 1B1 (Homo sapiens, UniProt Q9Y6L6); assay: Inhibition of human OATP1B1; type: ADME
T1 sequence (Q9Y6L6 whole entry): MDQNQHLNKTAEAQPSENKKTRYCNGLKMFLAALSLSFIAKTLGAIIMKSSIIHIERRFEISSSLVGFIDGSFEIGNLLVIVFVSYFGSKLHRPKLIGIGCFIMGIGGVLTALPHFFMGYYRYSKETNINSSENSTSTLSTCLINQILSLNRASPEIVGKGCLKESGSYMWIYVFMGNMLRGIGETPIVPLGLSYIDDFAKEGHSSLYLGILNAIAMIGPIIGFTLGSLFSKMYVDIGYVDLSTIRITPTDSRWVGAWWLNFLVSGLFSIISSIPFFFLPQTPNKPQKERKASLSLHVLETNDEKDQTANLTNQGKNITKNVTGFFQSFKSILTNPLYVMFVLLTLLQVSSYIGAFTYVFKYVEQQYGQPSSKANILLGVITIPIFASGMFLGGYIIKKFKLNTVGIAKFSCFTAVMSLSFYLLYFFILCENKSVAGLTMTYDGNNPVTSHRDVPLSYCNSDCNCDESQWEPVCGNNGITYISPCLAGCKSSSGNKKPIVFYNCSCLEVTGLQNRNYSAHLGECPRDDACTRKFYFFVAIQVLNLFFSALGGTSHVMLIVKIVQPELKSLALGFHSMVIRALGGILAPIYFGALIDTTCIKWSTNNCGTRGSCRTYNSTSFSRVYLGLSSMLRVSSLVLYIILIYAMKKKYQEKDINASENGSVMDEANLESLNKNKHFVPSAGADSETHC

[7] = Ratio of drug level in brain to plasma of dog; type: ADME, cell-free, Canis lupus familiaris; conditions: read-out: BPR
[8] = Stability in dog liver microsomes assessed as compound metabolism; type: ADME, Canis lupus familiaris, microsome
[9] = tested on: Canis familiaris; assay: Toxicity in male dog up to 750 mg/kg/day, po for 7 days; type: organism-based, Canis lupus familiaris; conditions: in vivo, 168 h
[10] = Ratio of drug level in liver to plasma of rat; type: ADME, cell-free
[11] = tested on: Hepatocyte; assay: Stability in human hepatocytes assessed as compound metabolism; type: ADME, cell-based
[12] = Protein binding in dog plasma; type: ADME, cell-free, Canis lupus familiaris; conditions: read-out: PPB
[13] = tested on: Rattus norvegicus; assay: Toxicity in male rat assessed as increase in monocyte level at 100 mg/kg/day, po for 7 days; type: organism-based; conditions: in vivo, 168 h
[14] = target: Cytochrome P450 3A4 (Homo sapiens, UniProt P08684); assay: Inhibition of CYP3A4 (unknown origin); type: ADME
[15] = Drug excretion in dog assessed as unchanged compound level at 1 mg/kg, iv; type: ADME, organism-based, Canis lupus familiaris; conditions: in vivo
[16] = Ratio of drug level in brain to plasma of rat; type: ADME, cell-free; conditions: read-out: BPR
[17] = tested on: Rattus norvegicus; assay: Toxicity in male rat assessed as increase in monocyte level at 750 mg/kg/day, po for 7 days; type: organism-based; conditions: in vivo, 168 h
[18] = Toxicity in female rat up to 30 mg/kg/day, po for 4 days; type: organism-based; conditions: in vivo
[19] = Stability in rat liver microsomes assessed as compound metabolism; type: ADME, microsome
[20] = tested on: Hepatocyte; assay: Stability in dog hepatocytes assessed as compound metabolism; type: ADME, cell-based, Canis lupus familiaris
[21] = tested on: Canis familiaris; assay: Clearance in beagle dog at 1 mg/kg, iv by LC-MS/MS method relative to liver blood flow; type: ADME, organism-based, Canis lupus familiaris; conditions: in vivo
[22] = tested on: Rattus norvegicus; assay: Clearance in Sprague-Dawley rat at 2.5 mg/kg, iv by LC-MS/MS method relative to liver blood flow; type: ADME, organism-based; conditions: in vivo
[23] = Dissociation constant, pKa of the compound; type: physicochemical
[24] = Solubility in pH 7.3 buffer; type: physicochemical
[25] = Ratio of drug level in liver to plasma of cynomolgus monkey; type: ADME, cell-free, Macaca fascicularis
[26] = tested on: Salmonella typhimurium; assay: Genotoxicity in Salmonella typhimurium by Ames test; type: toxicity, organism-based; conditions: salmonella enterica subsp. enterica serovar typhimurium
[27] = Protein binding in rat plasma; type: ADME, cell-free; conditions: read-out: PPB
[28] = Protein binding in cynomolgus monkey plasma; type: ADME, cell-free, Macaca fascicularis; conditions: read-out: PPB
[29] = tested on: Hepatocyte; assay: Stability in cynomolgus monkey hepatocytes assessed as compound metabolism; type: ADME, cell-based, Macaca fascicularis
[30] = Therapeutic index, ratio of CC50 for human HuH7 replicon cells to EC50 for inhibition of HCV NS5A in HCV genotype 1b assessed as reduction in viral replication by cell based replicon assay; type: toxicity; conditions: read-out: Ratio CC50/EC50
[31] = Drug excretion in rat urine assessed as unchanged compound level at 2.5 mg/kg, iv; type: ADME, organism-based; conditions: read-out: Drug excretion
[32] = Ratio of drug level in brain to plasma of cynomolgus monkey; type: ADME, cell-free, Macaca fascicularis; conditions: read-out: BPR
[33] = tested on: Rattus norvegicus; assay: Toxicity in male rat assessed as induction of mortality up to 750 mg/kg/day, po for 7 days; type: organism-based; conditions: in vivo, 168 h
[34] = Stability in cynomolgus monkey liver microsomes assessed as compound metabolism; type: ADME, Macaca fascicularis, microsome
[35] = target: Voltage-gated L-type calcium channel (Homo sapiens, UniProt Q13936+Q13698+Q01668+O60840); assay: Inhibition of L-type calcium channel (unknown origin) at 30 uM; type: protein assay
[36] = Permeability in MDCK2 cells; type: ADME, cell-based, Canis lupus familiaris, MDCK-II; conditions: dog, MDCK; read-out: permeability
[37] = Drug excretion in rat feces assessed as unchanged compound level at 2.5 mg/kg, iv; type: ADME, organism-based; conditions: faeces, read-out: Drug excretion
[38] = Stability in human liver microsomes assessed as compound metabolism; type: ADME, microsome
[39] = Ratio of drug level in liver to plasma of dog; type: ADME, cell-free, Canis lupus familiaris
[40] = Solubility in pH 3.1 buffer; type: physicochemical
[41] = target: Cytochrome P450 2C9 (Homo sapiens, UniProt P11712); assay: Inhibition of CYP2C9 (unknown origin); type: ADME
[42] = target: T2, Nuclear receptor subfamily 1 group I member 2 (Homo sapiens, UniProt O75469); assay: Activation of PXR (unknown origin); type: ADME
T2 sequence (O75469 whole entry): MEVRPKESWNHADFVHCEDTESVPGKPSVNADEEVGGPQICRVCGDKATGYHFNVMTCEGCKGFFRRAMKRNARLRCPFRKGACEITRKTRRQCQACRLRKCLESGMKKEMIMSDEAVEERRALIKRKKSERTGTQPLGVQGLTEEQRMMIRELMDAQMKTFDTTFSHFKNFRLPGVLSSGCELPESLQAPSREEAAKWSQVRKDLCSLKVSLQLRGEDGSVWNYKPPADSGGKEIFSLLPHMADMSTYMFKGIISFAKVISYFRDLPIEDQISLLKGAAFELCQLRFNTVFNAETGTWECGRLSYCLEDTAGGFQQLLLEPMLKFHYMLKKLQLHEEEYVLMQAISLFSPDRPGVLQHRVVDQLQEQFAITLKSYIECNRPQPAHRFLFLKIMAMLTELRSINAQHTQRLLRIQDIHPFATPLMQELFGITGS

[43] = Drug excretion in rat bile assessed as unchanged compound level at 2.5 mg/kg, iv; type: ADME, organism-based; conditions: read-out: Drug excretion
[44] = target: T3, PXR (Nuclear receptor subfamily 1 group I member 2) (Homo sapiens, UniProt O75469); assay: Activation of PXR (unknown origin) relative to rifampicin; type: ADME; conditions: read-out: FC
T3 sequence (O75469 whole entry): T2 sequence (O75469 whole entry)

[45] = tested on: Hepatocyte; assay: Stability in rat hepatocytes assessed as compound metabolism; type: ADME, cell-based
[46] = target: T2, Nuclear receptor subfamily 1 group I member 2; assay: Activation of PXR in human hepatocytes assessed as induction of […] mRNA expression; type: ADME, cell-based

Voltage-gated inwardly rectifying potassium channel KCNH2, sequence (Q12809 whole entry): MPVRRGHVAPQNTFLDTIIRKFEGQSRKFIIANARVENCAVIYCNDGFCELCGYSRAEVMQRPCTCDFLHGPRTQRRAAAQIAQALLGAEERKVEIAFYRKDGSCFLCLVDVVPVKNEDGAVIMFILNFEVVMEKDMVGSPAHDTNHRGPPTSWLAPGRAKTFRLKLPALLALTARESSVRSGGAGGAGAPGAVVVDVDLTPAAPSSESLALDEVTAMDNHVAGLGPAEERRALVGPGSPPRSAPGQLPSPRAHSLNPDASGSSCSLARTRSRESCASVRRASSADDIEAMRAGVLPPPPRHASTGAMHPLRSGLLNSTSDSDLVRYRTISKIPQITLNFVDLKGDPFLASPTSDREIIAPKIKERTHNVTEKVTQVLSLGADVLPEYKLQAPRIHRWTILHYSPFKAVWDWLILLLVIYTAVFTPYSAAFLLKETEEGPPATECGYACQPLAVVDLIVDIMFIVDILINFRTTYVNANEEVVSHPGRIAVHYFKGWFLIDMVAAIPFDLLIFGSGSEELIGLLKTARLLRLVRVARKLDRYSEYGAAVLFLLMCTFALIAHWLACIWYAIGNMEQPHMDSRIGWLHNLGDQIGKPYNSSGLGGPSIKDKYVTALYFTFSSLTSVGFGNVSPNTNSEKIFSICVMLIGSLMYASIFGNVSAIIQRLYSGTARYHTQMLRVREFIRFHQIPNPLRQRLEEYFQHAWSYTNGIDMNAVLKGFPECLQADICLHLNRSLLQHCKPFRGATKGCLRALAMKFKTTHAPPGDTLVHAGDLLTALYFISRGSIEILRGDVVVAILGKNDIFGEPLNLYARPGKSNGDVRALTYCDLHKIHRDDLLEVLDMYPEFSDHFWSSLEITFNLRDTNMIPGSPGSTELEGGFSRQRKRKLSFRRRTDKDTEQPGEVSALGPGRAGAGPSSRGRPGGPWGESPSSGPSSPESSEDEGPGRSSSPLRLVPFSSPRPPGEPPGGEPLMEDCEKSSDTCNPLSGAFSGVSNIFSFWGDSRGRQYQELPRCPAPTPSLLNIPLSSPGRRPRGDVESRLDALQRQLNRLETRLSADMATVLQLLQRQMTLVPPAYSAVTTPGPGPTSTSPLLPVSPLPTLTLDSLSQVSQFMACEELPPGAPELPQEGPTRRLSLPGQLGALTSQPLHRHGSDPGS
Cytochrome P450 2C9, sequence (P11712 whole entry): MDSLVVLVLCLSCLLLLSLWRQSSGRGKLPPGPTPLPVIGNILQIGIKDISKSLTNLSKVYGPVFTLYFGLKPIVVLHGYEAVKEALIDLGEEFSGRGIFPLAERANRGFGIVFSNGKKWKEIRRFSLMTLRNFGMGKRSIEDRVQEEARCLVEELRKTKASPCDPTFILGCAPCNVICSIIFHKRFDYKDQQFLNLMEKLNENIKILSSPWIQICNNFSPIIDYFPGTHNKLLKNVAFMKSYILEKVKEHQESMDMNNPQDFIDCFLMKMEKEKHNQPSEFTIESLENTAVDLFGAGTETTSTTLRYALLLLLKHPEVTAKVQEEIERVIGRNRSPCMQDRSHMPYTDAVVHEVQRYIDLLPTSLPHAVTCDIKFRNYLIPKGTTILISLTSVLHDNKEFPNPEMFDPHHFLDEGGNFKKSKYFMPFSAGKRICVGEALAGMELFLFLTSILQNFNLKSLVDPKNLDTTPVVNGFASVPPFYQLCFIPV
Cytochrome P450 2D6, sequence (P10635 whole entry): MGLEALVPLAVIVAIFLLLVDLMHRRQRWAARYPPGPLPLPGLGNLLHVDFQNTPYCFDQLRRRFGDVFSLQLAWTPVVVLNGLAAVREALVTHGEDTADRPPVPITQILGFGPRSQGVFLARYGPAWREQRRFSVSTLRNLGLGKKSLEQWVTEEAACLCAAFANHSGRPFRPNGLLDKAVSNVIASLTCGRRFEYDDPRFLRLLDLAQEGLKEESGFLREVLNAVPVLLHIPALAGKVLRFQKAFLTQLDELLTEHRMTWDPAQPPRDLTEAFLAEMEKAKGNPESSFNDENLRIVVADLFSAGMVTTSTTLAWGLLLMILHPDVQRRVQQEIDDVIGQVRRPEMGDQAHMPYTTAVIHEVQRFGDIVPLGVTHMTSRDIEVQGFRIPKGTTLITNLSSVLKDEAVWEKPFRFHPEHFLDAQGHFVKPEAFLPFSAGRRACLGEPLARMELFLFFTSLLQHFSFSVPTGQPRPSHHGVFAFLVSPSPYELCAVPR
Cytochrome P450 3A4, sequence (P08684 whole entry): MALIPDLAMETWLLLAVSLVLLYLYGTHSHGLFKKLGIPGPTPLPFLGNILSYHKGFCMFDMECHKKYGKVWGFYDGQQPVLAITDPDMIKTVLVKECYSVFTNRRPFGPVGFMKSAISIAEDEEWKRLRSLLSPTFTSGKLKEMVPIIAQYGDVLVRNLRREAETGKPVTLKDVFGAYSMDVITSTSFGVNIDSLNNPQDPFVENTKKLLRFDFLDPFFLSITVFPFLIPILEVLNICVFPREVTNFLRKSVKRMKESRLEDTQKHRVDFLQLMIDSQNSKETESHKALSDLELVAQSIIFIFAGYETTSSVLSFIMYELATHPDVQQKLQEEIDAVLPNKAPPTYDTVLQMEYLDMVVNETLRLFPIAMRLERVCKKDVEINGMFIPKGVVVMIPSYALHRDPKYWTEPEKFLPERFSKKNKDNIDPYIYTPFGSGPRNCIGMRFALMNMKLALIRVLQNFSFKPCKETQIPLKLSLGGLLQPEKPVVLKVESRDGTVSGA

COC(=O)N[C@H](C(=O)N1CC(F)(F)C[C@H]1c1ncc(-c2ccc(-c3ccc4c(ccc5nc([C@@H]6C[Si](C)(C)CN6C(=O)[C@@H](NC(=O)OC)C(C)C)[nH]c54)c3)cc2)[nH]1)C(C)C [listing 1 of 2 here]
inhibition [1]: inactive

COC(=O)N[C@H](C(=O)N1CC(F)(F)C[C@H]1c1ncc(-c2ccc(-c3ccc4c(ccc5nc([C@@H]6C[Si](C)(C)CN6C(=O)[C@@H](NC(=O)OC)C(C)C)[nH]c54)c3)cc2)[nH]1)C(C)C [listing 2 of 2 here]
inhibition (INH) [2]: Not Active
INH [3]: > 20 µM
CC50 [4]: > 25 µM
clearance [5]: 3 to 7%
inhibition (INH) [6]: Active
Kp [7]: 0.04
Stability [8]: Stable
Activity [9]: Non-Toxic
Kp [10]: 27
Stability [11]: Stable
fraction unbound [12]: < 0.001
Activity [13]: Toxic
INH [14]: > 20 µM
Drug excretion [15]: Active
Kp [16]: 0.04
Activity [17]: Toxic
NOAEL at 96 h [18]: > 30 mg/kg/day
Stability [19]: Stable
Stability [20]: Stable
clearance [21]: 3 to 7%
clearance [22]: 3 to 7%
pKa [23]: 3.57 to 5.69
solubility [24]: 2.7 µg/mL (≈ 3.2 µM)
Kp [25]: 27
Activity [26]: Non-Toxic
fraction unbound [27]: < 0.001
fraction unbound [28]: < 0.001
Stability [29]: Stable
selectivity ratio [30]: > 8e+06
dose excreted [31]: 27%
Kp [32]: 0.04
Activity [33]: Non-Toxic
Stability [34]: Stable
inhibition (INH) [35]: Not Active
Papp [36]: 0.8 ×10⁻⁶ cm/s
dose excreted [37]: 27%
Stability [38]: Stable
Kp [39]: 27
solubility [40]: 65 µg/mL (≈ 77.1 µM)
INH [41]: > 20 µM
Activity [42]: > 10 µM
dose excreted [43]: 27%
fold induction [44]: 0.2
Stability [45]: Stable
Activity [46]: > 3 µM
